Assay results reported in patent US20100209536A1, “Methods and Kits for Use in the Treatment and Prevention of Diseases or Conditions of the Immune System or Infectious Diseases” (The Brigham and Women's Hospital, Inc., priority 2006, published 2010).

What was measured:
Assay type in all cases: in vivo, human
[1] = test system: any wheeze in the first 2 yrs; assay: Project Viva antioxidant study: maternal intake and any wheeze in the first 2 yrs; details: for Any wheeze in the first 2 yrs, Univariate Model OR (95% CI) / Any wheeze in the first 2 yrs, Multivariable Model OR (95% CI): including supplements; for Any Wheeze, Foods Only OR / Any Wheeze, Supplements Only OR: univariate; for Any Wheeze, Foods Only OR: intake from foods only; for Any Wheeze, Supplements Only OR: intake from supplements only; for Association of total maternal intake with any wheeze in univariable models: total intakes
Description: (§1) Study subjects were enrolled in Project Viva, as described above. Recruitment and retention procedures have previously been published (Gillman et al., J. Pediatr. 144:240-245, 2004). We obtained information directly from participants and from medical records as detailed previously (Rifas-Shiman, Paediatr. Perinat. Epidemiol. 20:35-42, 2006). Data collected from interviews and questionnaires included demographics (infant gender, maternal marital status, and race), socioeconomic status (education and household income), and reproductive history (maternal gravidity, pre-pregnancy height and body mass index, and smoking). Questionnaires that inquired about infant health, feeding, and the home environment were administered when the child was 6 months, 1 year, and 2 years of age. Among 2,128 delivered infants in Project Viva, we excluded 228 participants because of missing first and second trimester diet assessment data and an additional 37 participants with a gestation of less than 34 completed weeks.
(§2) We assessed maternal diet using semi-quantitative food-frequency questionnaires (FFQ) validated for use during pregnancy (Fawzi et al., Ann. Epidemiol. 14:754-762, 2004), and used in several of our previous studies of maternal diet and offspring outcomes (Oken et al., Am. J. Epidemiol. 160:774-783, 2004; Huh et al., Int. J. Epidemiol. 34:378-384, 2005; Gillman et al., Circulation 110:1990-1995, 2004). As noted above, the FFQ used at the 1st visit reflected intakes in the 1st trimester; the time referent was “during this pregnancy,” that is from the date of the last menstrual period until the assessment, at an average of about 10 weeks gestation. To assess vitamin and supplement intake during the 1st trimester, we administered a separate interview that queried dose, duration, and brand/type of multivitamin, prescribed prenatal vitamins, and supplements. Also as noted above, the FFQ used at the 2nd visit (26 to 28 weeks of gestation) reflected intakes during the 2nd trimester; the time referent was “during the past 3 months.” The 2nd trimester instrument was the same as that for the 1st trimester except that we assessed use of vitamins/supplements as part of the self-completed FFQ.
(§3) To calculate intake of nutrients, we again used the Harvard nutrient composition database, which contains food composition values from the U.S. Department of Agriculture, supplemented by other data sources (U.S. Department of Agriculture ARS. USDA National Nutrient Database for Standard Reference, Release 14, 5R14; 2001). All nutrients were adjusted for total energy intake using the nutrient residuals method (Willett, Am. J. Clin. Nutr. 45:354-360, 1987). Mean nutrient intakes from the 1st and 2nd trimesters were used as the exposure in the analyses. If a participant only completed one FFQ, then nutrients calculated from that questionnaire were taken as the exposure of interest. One thousand one hundred and thirty-five (88.0%) of the 1,290 participants completed both FFQs, 96 (7.4%) completed the first trimester FFQ only, and 59 (4.6%) completed the second trimester FFQ only.
(§4) We ascertained the wheeze outcomes from questions from the First Year and Second Year Questionnaires: “since your child was born/since your child was […], has he/she ever had wheezing (or whistiling in the chest)?” “Any wheeze” was defined as a positive response to the question at either the first or second year questionnaire. “Recurrent wheeze” was defined as positive responses to the questions in both the first and second year questionnaires. […] “Respiratory infections” was defined as positive responses to one of three questions: “since your child was born/12 months old, have you been told by a health care professional (such as a doctor, physician assistant, or nurse practitioner) that your child has: (a) bronchiolitis; (b) pneumonia; (c) bronchitis, croup, or any other respiratory infection?” on either the first or second year questionnaires. […]

[2] = test system: recurrent wheeze in the first 2 yrs; assay: Project Viva antioxidant study: maternal intake and recurrent wheeze in the first 2 yrs; details: for Recurrent wheeze in the first 2 yrs, Multivariable Model OR (95% CI) / Recurrent wheeze in the first 2 yrs, Univariate Model OR (95% CI): including supplements; for Recurrent Wheeze, Foods Only OR / Recurrent Wheeze, Supplements Only OR: univariate; for Recurrent Wheeze, Foods Only OR: intake from foods only; for Recurrent Wheeze, Supplements Only OR: intake from supplements only
Description: as §1, §2, §3, §4

[3] = test system: respiratory infections in the 2-year old children; assay: Project Viva antioxidant study: maternal intake and respiratory infections in 2-year old children
Description: as §1
We assessed maternal diet using semi-quantitative food-frequency questionnaires (FFQ) validated for use during pregnancy (Fawzi et al., Ann. Epidemiol. 14:754-762, 2004), and used in several of our previous studies of maternal diet and offspring outcomes (Oken et al., Am. J. Epidemiol. 160:774-783, 2004; Huh et al., Int. J. Epidemiol. 34:378-384, 2005; Gillman et al., Circulation 110:1990-1995, 2004). As noted above, the FFQ used at the 1st visit reflected intakes in the 1st trimester; the time referent was “during this pregnancy,” that is from the date of the last menstrual period until the assessment, at an average of about 10 weeks gestation. […] Also as noted above, the FFQ used at the 2nd visit (26 to 28 weeks of gestation) reflected intakes during the 2nd trimester; the time referent was “during the past 3 months.” The 2nd trimester instrument was the same as that for the 1st trimester except that we assessed use of vitamins/supplements as part of the self-completed FFQ. […]

[4] = test system: severe asthma exacerbations in childhood asthmatics; assay: Childhood Asthma Management Program: baseline serum 25(OH)D and outcomes in childhood asthmatics on inhaled corticosteroid
Description: We measured 25(OH)D levels in stored serum (collected on entry into the trial) from 305 childhood asthmatics who were randomized to the inhaled corticosteroid arm of the multi-center Childhood Asthma Management Program. We then analyzed baseline 25(OH)D levels for their association with severe asthma exacerbations (defined as emergency room visits or hospitalizations for asthma) over the course of the 4-year trial.

[5] = 2nd vs 1st (lowest) quartile of maternal intake, calorie adjusted, n = 1,161
[6] = 2nd vs 1st (lowest) quartile of maternal intake
[7] = 3rd vs 1st (lowest) quartile of maternal intake
[8] = 4th (highest) vs 1st (lowest) quartile of maternal intake
[9] = 4th (highest) vs 1st (lowest) quartile of maternal intake, listed as vitamin E
[10] = 4th (highest) vs 1st (lowest) quartile
[11] = 2nd vs 1st (lowest) quartile of maternal intake, n = 1,038
[12] = 4th (highest) vs 1st (lowest) quartile of maternal intake, listed as zinc

Molecule	Any wheeze in the first 2 yrs, Univariate Model OR (95% CI) [1, 5]	Any wheeze in the first 2 yrs, Multivariable Model OR (95% CI) [1, 6]	Any Wheeze, Foods Only OR ([1]; 2nd vs 1st (lowest) quartile)	Any Wheeze, Supplements Only OR ([1]; 2nd vs 1st (lowest) quartile)	Any wheeze in the first 2 yrs, Multivariable Model OR (95% CI) [1, 7]	Any wheeze in the first 2 yrs, Univariate Model OR (95% CI) [1, 7]	Any Wheeze, Foods Only OR ([1]; 3rd vs 1st (lowest) quartile)	Any Wheeze, Supplements Only OR ([1]; 3rd vs 1st (lowest) quartile)	Any wheeze in the first 2 yrs, Multivariable Model OR (95% CI) [1, 8]	Any wheeze in the first 2 yrs, Univariate Model OR (95% CI) [1, 8]	Any Wheeze, Foods Only OR [1, 10]	Any Wheeze, Supplements Only OR [1, 10]	Association of total maternal intake with any wheeze in univariable models [1]	Recurrent wheeze in the first 2 yrs, Multivariable Model OR (95% CI) [2, 6]	Recurrent wheeze in the first 2 yrs, Univariate Model OR (95% CI) [2, 11]	Recurrent Wheeze, Foods Only OR ([2]; 2nd vs 1st (lowest) quartile)	Recurrent Wheeze, Supplements Only OR ([2]; 2nd vs 1st (lowest) quartile)	Recurrent wheeze in the first 2 yrs, Multivariable Model OR (95% CI) [2, 7]	Recurrent wheeze in the first 2 yrs, Univariate Model OR (95% CI) [2, 7]	Recurrent Wheeze, Foods Only OR ([2]; 3rd vs 1st (lowest) quartile)	further results
vitamin E	0.71 (0.51, 1.01)	0.90 (0.62, 1.31)	0.75	0.86	0.84 (0.58, 1.22)	0.67 (0.48, 0.95)^5	0.67	0.70	0.70 (0.48, 1.03)	0.52 (0.36, 0.74)^5	0.69	0.63	associated with lower risks	0.79 (0.47, 1.34)	0.60 (0.37, 0.98)	0.66	0.83	0.90 (0.54, 1.52)	0.68 (0.43, 1.10)	0.58	Any wheeze in the first 2 yrs, Multivariable Model OR (95% CI) [1, 9]: 0.70; Recurrent Wheeze, Supplements Only OR ([2]; 3rd vs 1st (lowest) quartile): 0.50; Recurrent wheeze in the first 2 yrs, Multivariable Model OR (95% CI) [2, 8]: 0.49 (0.27, 0.90)^5; Recurrent wheeze in the first 2 yrs, Univariate Model OR (95% CI) [2, 8]: 0.36 (0.20, 0.62)^5; Recurrent wheeze in the first 2 yrs, Multivariable Model OR (95% CI) [2, 9]: 0.49; Recurrent Wheeze, Foods Only OR [2, 10]: 0.61; Recurrent Wheeze, Supplements Only OR [2, 10]: 0.56; Association of total maternal intake with respiratory infections in the children [3]: not associated
[Zn] [Zinc, zinc]	0.77 (0.55, 1.08)	0.89 (0.61, 1.29)	0.85	0.98	0.85 (0.59, 1.24)	0.67 (0.47, 0.94)^5	0.60	0.67	0.59 (0.41, 0.88)^5	0.49 (0.34, 0.70)^5	0.60	0.63	associated with lower risks	0.61 (0.35, 1.06)	0.56 (0.34, 0.92)	0.70	0.94	0.89 (0.53, 1.49)	0.73 (0.46, 1.17)	0.65	Any wheeze in the first 2 yrs, Multivariable Model OR (95% CI) [1, 12]: 0.59; Recurrent Wheeze, Supplements Only OR ([2]; 3rd vs 1st (lowest) quartile): 0.59; Recurrent wheeze in the first 2 yrs, Multivariable Model OR (95% CI) [2, 8]: 0.49 (0.27, 0.87); Recurrent wheeze in the first 2 yrs, Univariate Model OR (95% CI) [2, 8]: 0.41 (0.24, 0.69)^5; Recurrent wheeze in the first 2 yrs, Multivariable Model OR (95% CI) [2, 12]: 0.49; Recurrent Wheeze, Foods Only OR [2, 10]: 0.68; Recurrent Wheeze, Supplements Only OR [2, 10]: 0.51; Association of total maternal intake with respiratory infections in the children [3]: not associated
25-Hydroxyvitamin D [25(OH)D]																					Association with lung function, bronchodilator response, or airway responsiveness ([4]; 305 childhood asthmatics on inhaled corticosteroid): no associations; OR, severe asthma exacerbations over the course of the 4-year trial ([4]; children with 25(OH)D levels ≦30 ng/ml, on inhaled corticosteroid, adjusted for age, sex, height, baseline FEV1): 1.76
